Data reported in patent publication US10344060B2 (priority 2013, dated 2019).
Where “and” joins values, the source holds several entries; their conditions need not be identical. Identical values can stand only once. Like-named read-outs stand apart in the source and are kept apart here.

Experiments:
Assay in all cases: cell-based
[1] = target: T1, hNav1.4 (Homo sapiens, UniProt P35499); format: cell-based; details: for Nav1.4/Nav1.7: ratio of PX tonic IC50 values; for IC50: read-out: PX hNav1.4 Tonic IC50
[2] = target: T1, hNav1.4; format: cell-based; details: Table 9
[3] = target: hNav1.3 (Homo sapiens, UniProt Q9NY46); details: IonWorks Quattro; Table 9; read-out: IC50 (μM) Nav1.3
[4] = target: T2, hNav1.5 (Homo sapiens, UniProt Q14524); details: for Nav1.5/Nav1.7: ratio of PX tonic IC50 values; for IC50: read-out: PX hNav1.5 Tonic IC50
[5] = target: T2, hNav1.5; details: IonWorks Quattro; Table 9; read-out: IC50 (μM) Nav1.5
[6] = target: hNav1.7 (Homo sapiens, UniProt Q15858); format: cell-based; details: for IC50: read-out: PX hNav1.7 Tonic IC50
[7] = target: hNav1.6 (Homo sapiens, UniProt Q9UQD0); format: cell-based; details: Table 15; for Nav1.6/Nav1.7: ratio of PX tonic IC50 values; for IC50: read-out: PX hNav1.6 Tonic IC50
[8] = Table 12, PatchXpress, tonic block
[9] = ratio of PX tonic IC50 values, Table 11

T1 sequence (P35499 whole entry): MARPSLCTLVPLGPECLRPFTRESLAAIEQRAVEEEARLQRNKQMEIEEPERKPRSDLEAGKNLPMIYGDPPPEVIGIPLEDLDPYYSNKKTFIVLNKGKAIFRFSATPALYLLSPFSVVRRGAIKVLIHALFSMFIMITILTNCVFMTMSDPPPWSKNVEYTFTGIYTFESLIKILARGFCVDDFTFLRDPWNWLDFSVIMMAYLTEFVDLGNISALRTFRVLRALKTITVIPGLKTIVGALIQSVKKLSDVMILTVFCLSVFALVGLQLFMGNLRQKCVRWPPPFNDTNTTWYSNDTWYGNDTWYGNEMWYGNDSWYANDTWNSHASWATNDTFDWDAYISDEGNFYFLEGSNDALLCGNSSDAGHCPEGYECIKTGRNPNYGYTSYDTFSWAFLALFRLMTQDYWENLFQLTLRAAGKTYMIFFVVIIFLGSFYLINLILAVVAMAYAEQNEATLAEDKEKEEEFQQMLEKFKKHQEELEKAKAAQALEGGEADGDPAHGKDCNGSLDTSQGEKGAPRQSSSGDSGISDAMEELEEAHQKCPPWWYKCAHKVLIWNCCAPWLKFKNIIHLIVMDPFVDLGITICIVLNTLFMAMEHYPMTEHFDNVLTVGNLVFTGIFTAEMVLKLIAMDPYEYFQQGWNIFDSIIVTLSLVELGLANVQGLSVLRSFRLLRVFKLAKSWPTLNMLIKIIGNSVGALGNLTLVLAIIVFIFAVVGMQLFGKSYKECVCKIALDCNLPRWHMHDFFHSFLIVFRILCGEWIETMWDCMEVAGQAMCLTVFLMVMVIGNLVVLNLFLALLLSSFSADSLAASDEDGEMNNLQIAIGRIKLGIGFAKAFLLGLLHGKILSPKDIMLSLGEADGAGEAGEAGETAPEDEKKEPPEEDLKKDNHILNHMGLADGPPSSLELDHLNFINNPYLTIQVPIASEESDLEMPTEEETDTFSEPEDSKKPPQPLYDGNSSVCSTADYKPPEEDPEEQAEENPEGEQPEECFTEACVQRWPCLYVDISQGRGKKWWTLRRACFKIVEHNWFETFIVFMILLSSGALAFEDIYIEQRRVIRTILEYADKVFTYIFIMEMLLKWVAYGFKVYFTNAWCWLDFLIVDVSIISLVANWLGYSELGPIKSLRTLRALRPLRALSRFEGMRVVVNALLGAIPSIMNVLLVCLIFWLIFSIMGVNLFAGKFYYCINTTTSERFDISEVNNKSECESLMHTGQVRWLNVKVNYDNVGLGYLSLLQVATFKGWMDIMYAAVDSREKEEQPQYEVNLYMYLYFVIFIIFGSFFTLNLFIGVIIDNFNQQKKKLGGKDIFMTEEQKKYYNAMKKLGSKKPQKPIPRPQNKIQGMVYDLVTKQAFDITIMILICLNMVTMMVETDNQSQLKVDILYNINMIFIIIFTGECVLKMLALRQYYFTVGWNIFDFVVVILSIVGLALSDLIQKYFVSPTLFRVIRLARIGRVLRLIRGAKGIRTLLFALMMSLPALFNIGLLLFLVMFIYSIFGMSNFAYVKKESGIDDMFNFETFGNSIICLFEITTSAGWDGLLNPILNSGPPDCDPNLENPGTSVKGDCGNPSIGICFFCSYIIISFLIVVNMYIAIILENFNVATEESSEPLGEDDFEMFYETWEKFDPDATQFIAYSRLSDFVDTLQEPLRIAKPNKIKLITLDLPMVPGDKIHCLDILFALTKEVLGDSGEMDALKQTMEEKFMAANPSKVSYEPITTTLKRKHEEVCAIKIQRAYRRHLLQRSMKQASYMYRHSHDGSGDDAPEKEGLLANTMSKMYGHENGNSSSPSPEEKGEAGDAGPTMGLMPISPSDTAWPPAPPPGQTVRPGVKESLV
Sequence of hNav1.7 (Q15858 whole entry): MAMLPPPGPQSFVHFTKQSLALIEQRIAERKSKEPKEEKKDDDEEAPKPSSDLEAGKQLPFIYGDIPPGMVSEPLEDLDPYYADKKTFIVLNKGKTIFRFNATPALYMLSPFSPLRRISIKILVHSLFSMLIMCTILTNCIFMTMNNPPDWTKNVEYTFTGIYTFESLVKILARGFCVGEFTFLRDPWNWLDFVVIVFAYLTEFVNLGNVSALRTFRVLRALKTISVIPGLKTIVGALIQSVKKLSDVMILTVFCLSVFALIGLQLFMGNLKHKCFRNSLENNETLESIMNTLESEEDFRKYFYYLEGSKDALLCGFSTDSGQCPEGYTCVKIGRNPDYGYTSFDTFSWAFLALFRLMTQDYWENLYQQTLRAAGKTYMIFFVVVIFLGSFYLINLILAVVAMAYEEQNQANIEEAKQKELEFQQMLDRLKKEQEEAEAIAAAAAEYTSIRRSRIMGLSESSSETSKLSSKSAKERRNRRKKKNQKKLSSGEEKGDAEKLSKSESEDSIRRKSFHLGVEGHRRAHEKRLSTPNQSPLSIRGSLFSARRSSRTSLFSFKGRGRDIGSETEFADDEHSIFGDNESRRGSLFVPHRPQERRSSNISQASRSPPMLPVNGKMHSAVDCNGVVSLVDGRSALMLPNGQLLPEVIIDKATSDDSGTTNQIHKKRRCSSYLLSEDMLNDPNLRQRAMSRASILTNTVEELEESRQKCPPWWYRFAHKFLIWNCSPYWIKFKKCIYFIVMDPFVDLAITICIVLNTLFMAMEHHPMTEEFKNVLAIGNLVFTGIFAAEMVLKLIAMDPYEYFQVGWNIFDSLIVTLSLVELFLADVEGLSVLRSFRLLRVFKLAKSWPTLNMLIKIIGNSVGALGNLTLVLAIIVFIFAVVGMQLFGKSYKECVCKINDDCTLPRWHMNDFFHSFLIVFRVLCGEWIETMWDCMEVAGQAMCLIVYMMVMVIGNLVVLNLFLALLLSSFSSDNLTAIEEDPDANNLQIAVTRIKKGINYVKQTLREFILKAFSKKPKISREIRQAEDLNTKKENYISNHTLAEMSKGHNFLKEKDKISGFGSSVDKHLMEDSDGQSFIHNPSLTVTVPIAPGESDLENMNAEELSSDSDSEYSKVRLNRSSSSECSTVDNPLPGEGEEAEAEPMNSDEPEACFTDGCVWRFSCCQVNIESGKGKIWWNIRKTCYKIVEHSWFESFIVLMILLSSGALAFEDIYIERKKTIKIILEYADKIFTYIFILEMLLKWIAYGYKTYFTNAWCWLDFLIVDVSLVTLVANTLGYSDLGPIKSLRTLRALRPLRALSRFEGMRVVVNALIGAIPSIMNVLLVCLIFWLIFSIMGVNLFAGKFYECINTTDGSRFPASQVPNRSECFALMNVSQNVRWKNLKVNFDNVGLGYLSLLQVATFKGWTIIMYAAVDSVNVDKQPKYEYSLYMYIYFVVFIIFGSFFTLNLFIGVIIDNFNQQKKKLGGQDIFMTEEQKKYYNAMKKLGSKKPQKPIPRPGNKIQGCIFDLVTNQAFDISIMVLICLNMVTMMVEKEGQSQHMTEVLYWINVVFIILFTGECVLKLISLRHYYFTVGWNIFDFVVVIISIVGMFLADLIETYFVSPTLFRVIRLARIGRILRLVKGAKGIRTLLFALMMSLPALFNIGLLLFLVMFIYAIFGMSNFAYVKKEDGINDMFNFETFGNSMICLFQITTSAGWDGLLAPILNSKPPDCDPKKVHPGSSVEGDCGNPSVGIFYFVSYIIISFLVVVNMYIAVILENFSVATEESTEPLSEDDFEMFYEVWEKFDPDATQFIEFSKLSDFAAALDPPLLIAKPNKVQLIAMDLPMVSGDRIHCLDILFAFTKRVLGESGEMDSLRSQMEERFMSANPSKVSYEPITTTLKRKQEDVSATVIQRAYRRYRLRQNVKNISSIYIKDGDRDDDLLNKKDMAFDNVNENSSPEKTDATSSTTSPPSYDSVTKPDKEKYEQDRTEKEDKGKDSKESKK

SMILES: CCCC[C@@H]1NC(=O)[C@H](Cc2c[nH]c3ccccc23)NC(=O)[C@H](CCCCN)NC(=O)[C@H](CCC(N)=O)NC(=O)[C@@H](NC(=O)[C@@H](N)Cc2ccc(O)cc2)CSSC[C@@H]2NC(=O)[C@@H]3CSSC[C@@H](C(=O)N[C@@H](CCCNC(=N)N)C(=O)N[C@@H](CCCCN)C(=O)N[C@H](C(=O)N[C@H](C(N)=O)[C@@H](C)CC)[C@@H](C)CC)NC(=O)[C@H](Cc4c[nH]c5ccccc45)NC(=O)[C@H](CC(C)C)NC(=O)[C@H](CCCCN)NC(=O)[C@H](CSSC[C@H](NC(=O)[C@H]([C@@H](C)O)NC(=O)[C@H](Cc4c[nH]c5ccccc45)NC1=O)C(=O)N[C@@H](CC(=O)O)C(=O)N[C@@H](Cc1cn(CCCOCCOCCOCCOCCOCCOCCOCCOCCOCCOCCN)nn1)C(=O)N[C@@H](CCCCN)C(=O)N[C@@H](CCCNC(=N)N)C(=O)N[C@@H](C)C(=O)N3)NC(=O)[C@H](CCCNC(=N)N)NC(=O)[C@H](CC(C)C)NC(=O)CNC(=O)[C@H](CCC(=O)O)NC2=O [compound 256]
- Nav1.4/Nav1.7 ([1]; Table 13): 3
- IC50 [1]: 27 nM
- IC50 ([2]; IonWorks Quattro, read-out: IC50 (μM) Nav1.4): 0.4 µM and 0.5 µM
- Nav1.4/Nav1.7 ([2]; ratio of IonWorks Quattro IC50 values): 4
- IC50 [3]: 0.2 µM and 0.4 µM
- Nav1.5/Nav1.7 ([4]; Table 13): 200
- IC50 [4]: 1860 nM
- IC50 [5]: > 5 µM
- IC50 [6]: 9.3 nM

SMILES: C#CC[C@H](N)C(=O)N[C@@H](CCC(=O)O)C(=O)N[C@H]1CSSC[C@@H]2NC(=O)[C@@H]3CSSC[C@@H](C(=O)N[C@@H](CCCNC(=N)N)C(=O)N[C@@H](CCCCN)C(=O)N[C@@H](CCC(=O)O)C(=O)N[C@H](C(N)=O)[C@@H](C)CC)NC(=O)[C@H](Cc4c[nH]c5ccccc45)NC(=O)[C@H](CC(C)C)NC(=O)[C@H](CCCCN)NC(=O)[C@H](CSSC[C@H](NC(=O)[C@H]([C@@H](C)O)NC(=O)[C@H](Cc4c[nH]c5ccccc45)NC(=O)[C@H](CCCC)NC(=O)[C@H](Cc4c[nH]c5ccccc45)NC(=O)[C@H](CCCCN)NC(=O)[C@H](CCC(N)=O)NC1=O)C(=O)N[C@@H](CC(=O)O)C(=O)N[C@@H](CO)C(=O)N[C@@H](CCCCN)C(=O)N[C@@H](CCCNC(=N)N)C(=O)N[C@@H](C)C(=O)N3)NC(=O)[C@H](CCCNC(=N)N)NC(=O)[C@H](CC(C)C)NC(=O)CNC(=O)[C@H](CCC(=O)O)NC2=O [compound 709]
- IC50 [1, 8]: 185 nM
- Nav1.4/Nav1.7 ([1]; Table 12): 164
- IC50 [4, 8]: > 1000 nM
- Nav1.5/Nav1.7 ([4]; Table 12): >887
- IC50 [6, 8]: 1.13 nM
- Nav1.6/Nav1.7 [7]: 518
- IC50 [7]: 584 nM

SMILES: CCCC[C@@H]1NC(=O)[C@H](Cc2c[nH]c3ccccc23)NC(=O)[C@H](CCCCN)NC(=O)[C@H](CCC(N)=O)NC(=O)[C@@H](NC(=O)[C@H](Cc2ccc(O)cc2)NC(=O)[C@@H](N)CCC(=O)O)CSSC[C@@H]2NC(=O)[C@@H]3CSSC[C@@H](C(=O)N[C@@H](CCCNC(=N)N)C(=O)N[C@@H](CCCCN)C(=O)N[C@@H](CCC(=O)O)C(=O)N[C@H](C(N)=O)[C@@H](C)CC)NC(=O)[C@H](Cc4c[nH]c5ccccc45)NC(=O)[C@H](CC(C)C)NC(=O)[C@H](CCCCN)NC(=O)[C@H](CSSC[C@H](NC(=O)[C@H]([C@@H](C)O)NC(=O)[C@H](Cc4c[nH]c5ccccc45)NC1=O)C(=O)N[C@@H](CC(=O)O)C(=O)N[C@@H](CO)C(=O)N[C@@H](CCCCN)C(=O)N[C@@H](CCCNC(=N)N)C(=O)N[C@@H](C)C(=O)N3)NC(=O)[C@H](CCCNC(=N)N)NC(=O)[C@H](CC(C)C)NC(=O)CNC(=O)[C@H](CCC(=O)O)NC2=O [compound 708]
- IC50 ([1]; PatchXpress, tonic, Table 11): 99.2 nM
- IC50 ([4]; PatchXpress, tonic, Table 11): 7600 nM
- IC50 ([6]; PatchXpress, tonic, Table 11): 0.765 nM
- Nav1.4/Nav1.7 [6, 9]: 130
- Nav1.5/Nav1.7 [6, 9]: 9941
- Nav1.6/Nav1.7 [7]: 682
- IC50 [7]: 522 nM
